{
  "source": "ChEMBL document CHEMBL1201862",
  "about": "“PubChem BioAssay data set” (2004)",
  "key": {"BJ [1]": {"test_system": "BJ", "test": "BJ-TERT-LT-ST fibroblast viability loss – cell-based, RAS-independent, luminescence, dose response (AID 1935);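 also: BJ fibroblasts immortalized with TERT plus LT and ST oncogenes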", "assay_type": "functional", "details": "Homo sapiens"}, "[2]": {"test": "DRD fibroblast viability loss – cell-based, non-viral oncogenic, luminescence, dose response (AID 1934)", "assay_type": "functional", "details": "Homo sapiens"}, "BJ [3]": {"test_system": "BJ", "test": "cells", "assay_type": "functional, cell-based", "details": "Homo sapiens"}, "[4]": {"test": "NIH-3T3 fibroblast cytotoxicity, dose response, cytotoxicity control, cell-based, fluorescence, Alamar Blue, secondary assay (AID 2327);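 also: NIH-3T3 mouse fibroblasts cultured with fluconazole at 8 µg/mL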", "assay_type": "functional"}, "BJ [5]": {"test_system": "BJ", "test": "BJ-TERT fibroblast viability loss – cell-based, RAS-independent, luminescence, dose response (AID 1933)", "assay_type": "functional", "details": "Homo sapiens"}, "[6]": {"test": "fluconazole-exposed Candida albicans growth modulators – fluorescence, retest, confirmation (AID 2467)", "assay_type": "functional, cell-based"}, "[7]": {"test": "HEK-293T viability loss after treatment – luminescence, T-cell screen hits, cytotoxicity control for TCR NF-kB inhibitor project, dose response (AID 489026);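 also: cells exposed to compound about 14 hours before the viability readout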", "assay_type": "functional, cell-based"}, "Aminopeptidase N": {"target": "T1, Aminopeptidase N (Plasmodium falciparum FcB1/Columbia, UniProt O96935)", "T1 sequence (O96935 whole entry)": "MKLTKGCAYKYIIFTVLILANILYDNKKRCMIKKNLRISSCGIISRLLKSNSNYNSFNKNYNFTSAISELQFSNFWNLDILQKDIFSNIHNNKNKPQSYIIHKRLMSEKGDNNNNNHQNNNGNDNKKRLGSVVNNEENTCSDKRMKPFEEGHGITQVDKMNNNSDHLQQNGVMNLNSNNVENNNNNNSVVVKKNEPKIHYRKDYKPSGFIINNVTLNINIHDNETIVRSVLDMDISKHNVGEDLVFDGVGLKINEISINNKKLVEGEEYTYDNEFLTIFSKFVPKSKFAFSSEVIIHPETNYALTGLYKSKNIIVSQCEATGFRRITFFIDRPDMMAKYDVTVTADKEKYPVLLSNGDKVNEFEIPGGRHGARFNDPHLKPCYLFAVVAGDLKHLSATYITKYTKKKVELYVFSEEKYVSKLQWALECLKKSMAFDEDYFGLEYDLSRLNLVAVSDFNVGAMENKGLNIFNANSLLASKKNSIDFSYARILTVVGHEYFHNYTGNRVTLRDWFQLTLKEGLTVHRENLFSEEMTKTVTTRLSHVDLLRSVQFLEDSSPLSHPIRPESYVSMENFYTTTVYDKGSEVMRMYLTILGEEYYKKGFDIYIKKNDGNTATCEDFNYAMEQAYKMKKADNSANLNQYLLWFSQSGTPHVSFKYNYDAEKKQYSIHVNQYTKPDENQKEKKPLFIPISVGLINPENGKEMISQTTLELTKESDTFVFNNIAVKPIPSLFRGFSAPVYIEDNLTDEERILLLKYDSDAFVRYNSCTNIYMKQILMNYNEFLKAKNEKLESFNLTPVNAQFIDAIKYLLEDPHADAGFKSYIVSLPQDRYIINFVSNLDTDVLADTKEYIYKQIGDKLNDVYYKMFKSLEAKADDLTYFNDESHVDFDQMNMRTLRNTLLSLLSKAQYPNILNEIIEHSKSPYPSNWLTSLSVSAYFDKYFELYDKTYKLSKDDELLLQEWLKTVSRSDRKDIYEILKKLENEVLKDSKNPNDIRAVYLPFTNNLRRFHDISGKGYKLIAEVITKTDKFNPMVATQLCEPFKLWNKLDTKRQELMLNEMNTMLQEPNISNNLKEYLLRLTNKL", "test": "malaria alanyl aminopeptidase activity blockers – biochemical, fluorogenic H-Leu-NHMec substrate, 1536-well (AID 1445)", "design": "species or system Plasmodium falciparum 3D7, 3D7"}, "[8]": {"target": "T2, RNA-binding protein pos-1 (Caenorhabditis elegans, UniProt G5EF15)", "T2 sequence (G5EF15 whole entry)": "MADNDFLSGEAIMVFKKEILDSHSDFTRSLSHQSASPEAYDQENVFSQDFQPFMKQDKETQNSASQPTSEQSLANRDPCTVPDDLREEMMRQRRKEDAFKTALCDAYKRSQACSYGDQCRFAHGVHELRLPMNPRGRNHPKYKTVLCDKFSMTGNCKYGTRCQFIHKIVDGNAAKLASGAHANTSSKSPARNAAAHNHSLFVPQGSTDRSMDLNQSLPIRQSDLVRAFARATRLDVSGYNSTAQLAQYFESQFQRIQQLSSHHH", "test": "disruptors of C. elegans POS-1 RNA interaction – biochemical, fluorescence polarization, dose response (AID 1964);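 also: purified POS-1 fused to maltose binding protein made in E. coli; potency of compounds blocking POS-1 binding to fluorescent RNA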"}, "Prothrombin": {"target": "Prothrombin (Homo sapiens, UniProt P00734)", "test": "Thrombin 1536 HTS Dose Response Confirmation. [Related pubchem assays: 1046 (Thrombin 1536 HTS; hits were confirmed in this assay)]", "assay_type": "functional"}, "[9]": {"target": "T3, Zinc finger protein mex-5 (Caenorhabditis elegans, UniProt Q9XUB2)", "T3 sequence (Q9XUB2 whole entry)": "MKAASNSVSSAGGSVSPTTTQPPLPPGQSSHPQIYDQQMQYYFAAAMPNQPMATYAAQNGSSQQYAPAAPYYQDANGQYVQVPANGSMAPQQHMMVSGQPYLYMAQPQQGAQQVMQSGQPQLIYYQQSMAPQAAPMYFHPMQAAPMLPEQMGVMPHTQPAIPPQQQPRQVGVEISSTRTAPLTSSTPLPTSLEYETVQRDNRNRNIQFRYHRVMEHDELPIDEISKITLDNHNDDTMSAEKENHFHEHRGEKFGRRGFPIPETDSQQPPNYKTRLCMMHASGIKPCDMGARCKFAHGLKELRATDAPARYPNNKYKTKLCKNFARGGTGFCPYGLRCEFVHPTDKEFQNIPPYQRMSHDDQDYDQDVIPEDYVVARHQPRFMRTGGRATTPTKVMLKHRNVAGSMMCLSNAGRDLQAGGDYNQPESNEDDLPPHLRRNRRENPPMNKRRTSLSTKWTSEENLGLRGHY", "test": "potency of MEX-5 RNA-binding blockers – biochemical, C. elegans, fluorescence polarization, dose response (AID 1960)"}, "[10]": {"target": "T4, Ubiquitin-conjugating enzyme E2 N (Homo sapiens, UniProt P61088)", "T4 sequence (P61088 whole entry)": "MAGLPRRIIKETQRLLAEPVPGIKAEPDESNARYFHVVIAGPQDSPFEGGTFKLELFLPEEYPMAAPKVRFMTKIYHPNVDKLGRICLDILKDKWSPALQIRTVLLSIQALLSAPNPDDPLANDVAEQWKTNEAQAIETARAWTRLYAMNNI", "assay_type": "functional"}, "Nonstructural protein 1": {"target": "Nonstructural protein 1 (Influenza A virus, UniProt Q194T2)", "sequence (Q194T2 whole entry)": "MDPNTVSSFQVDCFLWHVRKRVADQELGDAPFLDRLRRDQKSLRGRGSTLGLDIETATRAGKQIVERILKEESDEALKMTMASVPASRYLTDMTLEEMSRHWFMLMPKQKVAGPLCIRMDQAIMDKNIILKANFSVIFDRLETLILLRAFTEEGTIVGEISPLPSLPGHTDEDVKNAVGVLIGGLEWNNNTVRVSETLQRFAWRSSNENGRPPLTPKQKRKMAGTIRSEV", "assay_type": "functional, Influenza A virus (A/California/07/2009(H1N1))"}, "[11]": {"target": "T5, DNA repair protein RAD52 homolog (Homo sapiens, UniProt P43351)", "T5 sequence (P43351 whole entry)": "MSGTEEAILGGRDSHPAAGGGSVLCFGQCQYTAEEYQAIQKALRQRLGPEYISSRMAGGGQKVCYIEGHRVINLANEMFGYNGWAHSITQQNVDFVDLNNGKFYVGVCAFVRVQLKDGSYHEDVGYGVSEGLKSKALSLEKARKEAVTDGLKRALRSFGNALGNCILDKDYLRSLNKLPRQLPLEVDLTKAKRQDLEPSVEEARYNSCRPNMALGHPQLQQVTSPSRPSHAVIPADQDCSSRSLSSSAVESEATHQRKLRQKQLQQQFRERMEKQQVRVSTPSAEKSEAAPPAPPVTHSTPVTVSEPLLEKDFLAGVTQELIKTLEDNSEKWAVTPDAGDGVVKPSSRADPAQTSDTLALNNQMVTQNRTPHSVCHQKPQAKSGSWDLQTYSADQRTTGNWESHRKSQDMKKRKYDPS", "assay_type": "functional, biochemical"}, "Cytochrome P450 2C9": {"target": "Cytochrome P450 2C9 (Homo sapiens, UniProt P11712)", "sequence (P11712 whole entry)": "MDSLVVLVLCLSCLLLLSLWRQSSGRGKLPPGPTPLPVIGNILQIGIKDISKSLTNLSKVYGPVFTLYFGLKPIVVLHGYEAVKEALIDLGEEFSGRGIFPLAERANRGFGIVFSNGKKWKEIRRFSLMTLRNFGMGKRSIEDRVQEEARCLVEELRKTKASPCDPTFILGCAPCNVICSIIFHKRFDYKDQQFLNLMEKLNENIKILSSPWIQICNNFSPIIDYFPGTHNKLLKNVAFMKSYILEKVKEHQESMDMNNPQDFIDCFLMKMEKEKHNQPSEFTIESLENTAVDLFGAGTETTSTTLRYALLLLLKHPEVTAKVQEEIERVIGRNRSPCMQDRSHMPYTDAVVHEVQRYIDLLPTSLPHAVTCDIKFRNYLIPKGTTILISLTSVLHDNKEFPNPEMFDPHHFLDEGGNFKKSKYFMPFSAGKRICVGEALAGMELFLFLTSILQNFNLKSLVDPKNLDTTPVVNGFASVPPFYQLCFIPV"}, "[12]": {"test": "A Cell Based Secondary Assay To Explore Cytotoxicity of Compounds that Sensitize Mycobacterium Tuberculosis to Beta-Lactam Antibiotics.", "assay_type": "functional"}, "[13]": {"test": "A cytotoxicity screen of small molecule inhibitors of the PhoP region in Salmonella typhi identified in the primary screen. [Related pubchem assays: 1850, 1864, 1985 ]", "assay_type": "functional"}},
  "note": "Calls of active or inactive are those of the source.",
  "data": [
    {"compound": "COc1ccc(-[n+]2c(-c3ccccc3)cc(-c3ccc(C)cc3)cc2-c2ccccc2)cc1.[O-][Cl+3]([O-])([O-])[O-]", "values": [
      {"measurement": "EC50", "setting": "BJ [1]", "value": "19.8 µM (active)"},
      {"measurement": "EC50", "setting": "[2]", "value": "10 µM (inconclusive)"},
      {"measurement": "EC50", "setting": "BJ [3]", "value": "5 µM (active)"},
      {"measurement": "EC50", "setting": "[4]", "value": "7.59 µM (active)"},
      {"measurement": "EC50", "setting": "BJ [5]", "value": "3.39 µM (active)"},
      {"measurement": "EC50", "setting": "[6]", "value": "0.037 µM (active)"},
      {"measurement": "IC50", "setting": "[7]", "value": "> 80 µM (inactive)"}
    ]},
    {"compound": "O=C1NC(=O)N(CCc2ccccc2)C(=O)/C1=C/NNC(=O)c1ccncc1", "values": [
      {"measurement": "IC50", "setting": "Aminopeptidase N", "value": "38.4 µM (active)"},
      {"measurement": "EC50", "setting": "[8]", "value": "> 300 µM (not active)"},
      {"measurement": "IC50", "setting": "Prothrombin", "value": "> 50 µM (not active)"},
      {"measurement": "EC50", "setting": "[9]", "value": "> 300 µM (not active)"}
    ]},
    {"compound": "CN1CCC(CN)(N2CCN(c3ccccc3)CC2)CC1", "values": [
      {"measurement": "IC50", "setting": "[10]", "value": "> 20 µM (inactive)"},
      {"measurement": "IC50", "setting": "Nonstructural protein 1", "value": "> 100 µM (active)"},
      {"measurement": "AC50", "setting": "[11]", "value": "23.1 µM (active)"}
    ]},
    {"compound": "COc1ccc(OC)c(C(=O)CN2C(=O)NC(C)(c3ccccc3)C2=O)c1", "note": "(configuration not stated)", "values": [
      {"measurement": "AC50", "setting": "Cytochrome P450 2C9", "value": "inconclusive"}
    ]},
    {"compound": "COc1ccc(CNS(=O)(=O)c2cc(-c3cc(C)no3)ccc2C(C)C)cc1", "values": [
      {"measurement": "IC50", "setting": "[7]", "value": "> 80 µM (inactive)"}
    ]},
    {"compound": "COc1ccc2nc(SCC(=O)N3CCCCCC3)c(C#N)cc2c1", "values": [
      {"measurement": "CC50", "setting": "[12]", "value": "> 40 µM (active)"}
    ]},
    {"compound": "Cc1ccc(CN2C3=NCCN3c3ccccc32)cc1", "values": [
      {"measurement": "EC50", "setting": "[13]", "value": "> 50 µM (active)"}
    ]},
    {"compound": "COc1ccc(OC[C@@H](CO)OC)cc1", "values": [
      {"measurement": "AC50", "setting": "Cytochrome P450 2C9", "value": "inconclusive"}
    ]},
    {"compound": "Cc1ccc(Cn2c(C(C)Nc3nc(-c4ccc(Cl)cc4)cs3)nc3cc(C(=O)NCCCO)ccc32)cc1", "note": "(configuration not stated)", "values": [
      {"measurement": "CC50", "setting": "[12]", "value": "> 40 µM (active)"}
    ]},
    {"compound": "O=C(O)Cn1c(=O)c2c3c(sc2n(Cc2ccccc2F)c1=O)CCCC3", "values": [
      {"measurement": "EC50", "setting": "[13]", "value": "> 50 µM (active)"}
    ]},
    {"compound": "Cc1ccc(CNC(=O)C2CC(c3ccccc3[N+](=O)[O-])=NO2)cc1", "note": "(configuration not stated)", "values": [
      {"measurement": "AC50", "setting": "Cytochrome P450 2C9", "value": "inconclusive"}
    ]}
  ]
}
